Tested on: beta-TC6 cell system
Test: Comparison of insulin release with commercially available inhibitors, mouse/rat insulin ELISA
Type: cell-based
Settings: 5µM, 2 h; DMSO = 0; Table 9; listed as Sutent
Protocol: Based on literature references, several commercially available inhibitors were compared with compounds according to the invention. […] Cells were cultured for 24 h before treated with the inventive compounds and control inhibitors for 2 h at 37 °C and 5 % (v/v) CO2. Insulin in the supernatant was detected by mouse/rat insulin ELISA.

Row | Compound | Insulin Release [%]
1 | CCN(CC)CCNC(=O)c1c(C)[nH]c(/C=C2\C(=O)Nc3ccc(F)cc32)c1C [Sunitinib, reference compound] | 93.35%

Same assay, conditions: 2 h; concentration not given

Row | Compound | effect on insulin release
2 | COc1ccc(Cl)cc1C(=O)NCCc1ccc(S(=O)(=O)NC(=O)NC2CCCCC2)cc1 [Glibenclamide, reference compound] | no effect
3 | CCCCNC(=O)NS(=O)(=O)c1ccc(C)cc1 [Tolbutamide, reference compound] | no effect

Same assay, conditions: Mus musculus, Beta-TC6; 5µM, 2 h; DMSO = 0; Table 9

Row | Compound | activation at 5 µM
4 | CCN(CC)CCNC(=O)c1c(C)[nH]c(/C=C2\C(=O)Nc3ccc(F)cc32)c1C [Sunitinib, reference compound] | 93.3 ± 14.4%
5 | NC(=O)c1ccc(-c2cnc3ccc(Cc4ccccc4)nn23)cc1 [compound 2, 4-(6-benzylimidazo[1,2-b]pyridazin-3-yl)benzamide] | 65.7%

Same assay, conditions: Mus musculus, Beta-TC6; 10µM, 2 h; DMSO = 0; Table 9

Row | Compound | activation at 10 µM
6 | O=C1C(Cl)=C(N2C(=O)CCC2=O)C(=O)c2ccccc21 [MEK, reference compound] | 67.3%

Tested on: C2C12 cells
Test: 2-NBDG glucose uptake by flow cytometry
Settings: C2C12, 1 h compound treatment; Figure 10
Protocol: Furthermore, as internal controls, samples of glucose free media, respectively glucose free media with test compound, were tested. Subsequently, cells were washed, trypsinized and harvested in ice-cold PBS before centrifuged at 1.6 x10^3 rpm at 4°C. Cells were analyzed by flow cytometry (FACS Calibur, BD Bioscience, respectively a BD Accuri® C6 Flow Cytometer).
To investigate the impact of the Grk5 inhibitors on Glucose uptake, cells were cultured 1 h in glucose free media supplied with 100 µM 2-NBDG at 37 °C and 5 % (v/v) CO2. Furthermore, as internal controls, samples of glucose free media, respectively glucose free media with test compounds, were measured. Fluorescence was analyzed by flow cytometer (FACS Calibur, BD Bioscience, respectively a BD Accuri® C6 Flow Cytometer).

Row | Compound | uptake of 2-NBDG compared with negative control background
7 | NC(=O)c1ccc(-c2cnc3ccc(Cc4ccccc4)nn23)cc1 [compound 2, 4-(6-benzylimidazo[1,2-b]pyridazin-3-yl)benzamide] | significantly increased uptake of 2-NBDG

Tested on: beta-TC6 cells
Test: Insulin release in low glucose medium, rat/mouse insulin ELISA
Type: cell-based
Settings: low glucose 1.125 mM (20 mg/dL), 2 h, relative to DMSO control; Example 6, Figure 5
Protocol: (§1) In order to measure the insulin released upon compound treatment beta-TC6 insulinoma (mouse) and RIN-T2B-5AH (rat islet tumor subclone) cells were washed and incubated for 2 h in high (4.5 g/L) or low (1.125 g/L) glucose media at 37 °C. After incubation, the supernatant of the beta-TC6 insulinoma cells was diluted 1:20, whereas the supernatants of the RIN-T2B-5AH were diluted 1:10. The insulin release was measured with rat/mouse insulin ELISA (Merck Millipore Darmstadt, Cat. # EZRMI-13K) by following the manufacture's protocol. The enzyme activity of the horseradish peroxidase of the immobilized biotinylated antibodies was monitored spectrophotometrically by the increased absorbency at 490 nm, and corrected by the absorbency at 610 nm.
Hypoglycemia can cause impairment of cognitive function, motoric control or even consciousness. […] Therefore, we verified the glucose dependent insulin release in beta-TC6 cells using media with 1.125 mM (20 mg/dL) glucose. Cells were cultured for 24 h in a 96-well plate, washed with PBS and then appropriate media was replaced for 2 h at 37°C and 5 % (v/v) CO2. […] The enzyme activity of the horseradish peroxidase of the immobilized biotinylated antibodies was monitored spectrophotometrically by the increased absorbency at 490 nm, and corrected by the absorbency at 610 nm. […]

Row | Compound | insulin release
8 | CCN(CC)CCNC(=O)c1c(C)[nH]c(/C=C2\C(=O)Nc3ccc(F)cc32)c1C [Sunitinib, reference compound] | 0.77 ± 0.03

Tested on: beta-TC6
Test: MTT cytotoxicity assay (cell viability and proliferation)
Type: cell-based, mouse
Settings: beta-TC6, 72 h treatment, concentrations up to 10 µM
Protocol: Using a MTT approach, we determined the effect on cell viability and proliferation of beta-TC6 and C2C12 cells to display potential cytotoxicity of the compounds according to the invention in vitro after a 72 h treatment.
For MTT (3-(4,5-dimethylthiazol-2-yl)-2,5-diphenyl tetrazolium bromide) transformation, 1/5 of total volume of a 5 mg/mL MTT stock solution was added to the cells as well as control wells and incubated at 37 °C, 5 % CO2 (v/v) for 1 h. Then 1/2 of total volume of MTT-stop solution was added and plates were incubated overnight in the dark at 25 °C. The optical density (OD) was measured using a multiwell spectrophotometer at a wavelength of 570 nm.

Row | Compound | toxic effect
9 | CCN(CC)CCNC(=O)c1c(C)[nH]c(/C=C2\C(=O)Nc3ccc(F)cc32)c1C [Sunitinib, reference compound] | toxic in lower concentrations

Tested on: beta-TC6 cells
Test: Insulin HTRF assay, relative activity Ar normalized to sunitinib
Type: cell-based
Settings: Mus musculus, normalized to positive control sunitinib (5 µM = 100%), Table 10
Summary of the method: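 Relative activity Ar was scaled between 0% and 100% controls, with sunitinib at 5 µM f.c. as reference. Insulin released by beta-TC6 cells was quantified by sandwich HTRF (Eu-cryptate/XL665 antibodies, 120 min RT). Cells had been seeded 24 or 48 h, then treated 2–4 h at 37°C in induction buffer, 0.5% DMSO.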

Row | Compound | Emax
10 | NC(=O)c1ccc(-c2cnc3ccc(Cc4ccccc4)nn23)cc1 [compound 2, 4-(6-benzylimidazo[1,2-b]pyridazin-3-yl)benzamide] | 20 to 50%
11 | COc1cc(OC)cc(-c2cn3c(-c4cccs4)cnc3cn2)c1 [compound 426, 6-(3,5-dimethoxyphenyl)-3-(2-thienyl)imidazo[1,2-a]pyrazine] | 20 to 50%
12 | Nc1ccc(-c2cn3c(-c4cccs4)cnc3cn2)cn1 [compound 427, 5-[3-(2-thienyl)imidazo[1,2-a]pyrazin-6-yl]pyridin-2-amine] | 20 to 50%
13 | CC(C)Oc1cccc(-c2cn3c(-c4cccs4)cnc3cn2)c1 [compound 428, 6-(3-isopropoxyphenyl)-3-(2-thienyl)imidazo[1,2-a]pyrazine] | 20 to 50%
14 | CN1CCN(c2ccc(-c3cn4c(-c5ccc(C(=O)N(C)C)cc5)cnc4cn3)cn2)CC1 [compound 429, N,N-dimethyl-4-[6-[6-(4-methylpiperazin-1-yl)-3-pyridyl]imidazo[1,2-a]pyrazin-3-yl]benzamide] | 20 to 50%
15 | CN(C)C(=O)c1ccc(-c2cnc3cnc(-c4ccccc4Oc4ccccc4)cn23)cc1 [compound 430, N,N-dimethyl-4-[6-(2-phenoxyphenyl)imidazo[1,2-a]pyrazin-3-yl]benzamide] | 20 to 50%
16 | CN(C)C(=O)c1ccc(-c2cnc3cnc(-c4ccsc4)cn23)cc1 [compound 431, N,N-dimethyl-4-[6-(3-thienyl)imidazo[1,2-a]pyrazin-3-yl]benzamide] | 20 to 50%
17 | CC(=O)Nc1cccc(-c2cn3c(-c4ccc(C(=O)N(C)C)cc4)cnc3cn2)c1 [compound 432, 4-[6-(3-acetamidophenyl)imidazo[1,2-a]pyrazin-3-yl]-N,N-dimethyl-benzamide] | 20 to 50%
18 | CN(C)C(=O)c1ccc(-c2cnc3cnc(-c4ccc5c(ccn5C)c4)cn23)cc1 [compound 433, N,N-dimethyl-4-[6-(1-methylindol-5-yl)imidazo[1,2-a]pyrazin-3-yl]benzamide] | 20 to 50%
19 | CC(=O)c1ccc(-c2cn3c(-c4ccc(C(=O)NC5CC5)cc4)cnc3cn2)s1 [compound 434, 4-[6-(5-acetyl-2-thienyl)imidazo[1,2-a]pyrazin-3-yl]-N-cyclopropyl-benzamide] | 20 to 50%
20 | CC(C)N1CCN(c2ccc(-c3cn4c(-c5ccc(C(=O)NC6CC6)cc5)cnc4cn3)cc2)CC1 [compound 435, N-cyclopropyl-4-[6-[4-(4-isopropylpiperazin-1-yl)phenyl]imidazo[1,2-a]pyrazin-3-yl]benzamide] | 20 to 50%
21 | COc1cc(OC)cc(-c2cnc3cnc(-c4ccccc4N(C)C)cn23)c1 [compound 436, 2-[3-(3,5-dimethoxyphenyl)imidazo[1,2-a]pyrazin-6-yl]-N,N-dimethylaniline] | 20 to 50%
22 | COc1cc(OC)cc(-c2cnc3cnc(-c4cccc(OC(C)C)c4)cn23)c1 [compound 437, 3-(3,5-dimethoxyphenyl)-6-(3-isopropoxyphenyl)imidazo[1,2-a]pyrazine] | 20 to 50%
23 | Cn1cc(-c2cnc3cnc(-c4ccncc4)cn23)cn1 [compound 438, 3-(1-methylpyrazol-4-yl)-6-(4-pyridyl)imidazo[1,2-a]pyrazine] | 20 to 50%
24 | Cn1cc(-c2cnc3cnc(-c4cc5ccccc5s4)cn23)cn1 [compound 439, 6-(benzothiophen-2-yl)-3-(1-methylpyrazol-4-yl)imidazo[1,2-a]pyrazine] | 20 to 50%
25 | COc1cc(-c2cn3c(-c4ccc5ncccc5c4)cnc3cn2)cc(OC)c1OC [compound 440, 6-[6-(3,4,5-trimethoxyphenyl)imidazo[1,2-a]pyrazin-3-yl]quinoline] | 20 to 50%
26 | COc1cc(-c2cn3c(-c4ccc5ncccc5c4)cnc3cn2)ccc1O [compound 441, 2-methoxy-4-[3-(6-quinolyl)imidazo[1,2-a]pyrazin-6-yl]phenol] | 20 to 50%
27 | Cc1cc(-c2cn3c(-c4ccc5ncccc5c4)cnc3cn2)cc(C)c1O [compound 442, 2,6-dimethyl-4-[3-(6-quinolyl)imidazo[1,2-a]pyrazin-6-yl]phenol] | 20 to 50%
28 | Cn1ccc2cc(-c3cn4c(-c5ccc6ncccc6c5)cnc4cn3)ccc21 [compound 443, 6-[6-(1-methylindol-5-yl)imidazo[1,2-a]pyrazin-3-yl]quinoline] | ≥ 100%
29 | CS(=O)(=O)Nc1cccc(-c2cn3c(-c4ccc5ncccc5c4)cnc3cn2)c1 [compound 444, N-[3-[3-(6-quinolyl)imidazo[1,2-a]pyrazin-6-yl]phenyl]methanesulfonamide] | 20 to 50%

Tested on: beta-TC6 cells
Test: Insulin release in high glucose medium, rat/mouse insulin ELISA
Type: cell-based
Settings: Mus musculus, Beta-TC6, 2 h, high glucose (4.5 g/L) DMEM, Example 9, Figure 6, ± SEM, read-out: increase of insulin release
Protocol: Cells were cultured overnight, washed with PBS and then treated with 5 µM of test compounds as well as non-inhibitor controls for 2 h in a high glucose (4.5 g/L) DMEM at 37°C and 5 % (v/v) CO2. Release of insulin was detected using a rat/mouse insulin ELISA.
as §1, with “After” for “In order to measure the insulin released upon compound treatment beta-TC6 insulinoma (mouse) and RIN-T2B-5AH (rat islet tumor subclone) cells were washed and incubated for 2 h in high (4.5 g/L) or low (1.125 g/L) glucose media at 37 °C. After”
Afterwards, the supernatant was analyzed for insulin using the rat/mouse insulin ELISA (Merck Millipore Darmstadt, Cat. # EZRMI-13K) by following the manufacture's protocol..
Cells were treated for 2 h in a high glucose (4.5 g/L) DMEM media at 37°C and 5 % (v/v) CO2. Insulin release was analyzed using the rat/mouse insulin ELISA.

Row | Compound | activation at 5 µM
30 | CC(=O)Nc1cc(-c2cccc(C(=O)NCCO)c2)cn2c(-c3ccc(F)cc3)cnc12 [Cpd c1, reference compound] | 1.3 ± 0.3%

— patent EP2818471A1, “Nitrogen bicyclic compounds as inhibitors for Scyl1 and Grk5” (Max-Planck-Gesellschaft zur Förderung der Wissenschaften …, priority 2013, dated 2014)
